Measured values published in patent EP1494749B1, “PROCESS FOR PREPARATION OF PHARMACEUTICAL COMPOSITION CONTAINING ANTIRETROVIRAL PROTEASE INHIBITOR WITH IMPROVED BIOAVAILABILITY” (Cadila Pharmaceuticals Limited, priority 2002, dated 2003).

What was measured:
clinical = settings: human, in vivo
Experimental: 2. Kit In a further aspect, the present invention provides a kit comprising one or more pharmaceutically acceptable doses of an antiretroviral protease inhibitor as defined above and one or more pharmaceutically acceptable doses of piperine or an isomer thereof. […] However, the scope of this invention is not limited by them. […] Nelfinavir i) Two tablets each containing 250 mg of Nelfinavir and a tablet containing 20 mg of piperine. ii) Two tablets each containing 250 mg of Nelfinavir and two tablets each containing 15 mg of piperine. Saquinavir i) Three capsules each containing 200 mg of Saquinavir and three tablets each containing 5 mg of piperine. ii) Four capsules each containing 200 mg of Saquinavir and a tablets containing 20 mg of piperine. 3. The following are Examples of excipients (i.e. other than piperine) which can be used to prepare pharmaceutical compositions of the present invention. However, the scope of this invention is not limited by them. Saquinavir : • Capsule: medium chain mono- and diglycerides, povidone and dl-alpha tocopherol. […] 4. […] However, the scope of this invention is not limited by them. […] 5.

[1] = in vivo; cited from earlier work

With CC(C)(C)NC(=O)[C@@H]1CN(Cc2cccnc2)CCN1C[C@@H](O)C[C@@H](Cc1ccccc1)C(=O)N[C@H]1c2ccccc2C[C@H]1O [Indinavir] as the molecule, how does the Tmax (clinical) read?
The Tmax was 1.58 h.

What about the “reduction in AUC” value [1] of the same molecule?
The value was 77% ± 8%.
